# Measurements reported in a melting point compilation (Tetko et al.; mined from patent text by program, amines drawn as free bases though some values may be those of a salt).
row,melting point,Compound
1,232 to 234 °C,CC(C)n1nc(-c2sc(C(N)=O)nc2-c2cccc(Cl)c2)ccc1=O
2,99 to 101 °C,C=CCN1N=C(c2ccc(OC)c(OC)c2)[C@@H]2CCCC[C@@H]2C1=O (relative stereo)
3,94 to 98 °C,CCCCCCCN(Cc1ccc(CCCCCC)cc1)C(Nc1ccc(C(F)(F)F)cc1)=C1C(=O)COC1=O
4,55 to 60 °C,O=C1CCN(Cc2cccnc2)C(=O)C1
5,240 °C,O=C(C1CCCCC1)C1CCN(C(=O)c2cc(O)c(O)cc2[N+](=O)[O-])CC1
6,147 to 149 °C,NS(=O)(=O)c1ccc(-c2cccn2-c2ccc(Cl)cc2Cl)cc1
7,248 to 250 °C,O=C(O)C1CCC(c2ccc(O)cc2)CC1 (stereo unspecified)
8,164 to 165 °C,Cc1cccnc1C1CC(C)(C)Oc2ccc([N+](=O)[O-])cc21 (stereo unspecified)
9,110 to 114 °C,CCOc1ccn(C2OC(CO)C(O)C2O)c(=O)n1 (stereo unspecified)
10,291 °C,COc1ccc(-c2[nH]nc3c2C(=O)c2c(NC(=O)CN4CCCCC4)cccc2-3)cc1
11,77 to 79 °C,CCCCn1c(=O)c2[nH]ncc2n(CCC(C)C)c1=O
12,216 to 218 °C,CC(C)C(NC(=O)CCc1ccccn1)C(=O)NC(Cc1ccccc1)C(O)C(Cc1ccccc1)NC(=O)C(NC(=O)CCc1ccccn1)C(C)C (stereo unspecified)
13,144 to 146 °C,OC(CCn1ccnc1)c1ccc2c(c1)Cc1ccccc1-2 (stereo unspecified)
14,119 to 120 °C,c1ccc2c(c1)OCCN1CCOCCN(CCOCC1)CCO2
15,107 to 108 °C,Cc1cccc(C)c1N1CCN(CCC2CN(C)C(=O)O2)CC1 (stereo unspecified)
16,104 to 105 °C,COc1nc(N(C)C)nc(CCCCCCCCCCO)c1O
17,178 to 180 °C,C[C@H]1C[C@@](O)(c2cccc(S(=O)(=O)c3ccc4c(c3)CCC(=O)N4)c2)CCO1
18,162 °C,O=C(Nc1ccc(CN2C(=O)[C@H]3CCC[C@H]3Nc3ccccc32)cc1)OCc1ccccc1 (relative stereo)
19,77 to 79 °C,O[C@@H](COc1cccc(-c2noc3ccsc23)c1)CN1CCN(c2ccccc2C(F)(F)F)CC1
20,< 30 °C,CCC1(C)CC(S(=O)Cc2c(F)cccc2F)=NO1 (stereo unspecified)
21,81 to 85 °C,CC=CCn1c(C)c(C)c2cnnc(SCc3ccc(Cl)cc3Cl)c21
22,181 to 182 °C,COC(=O)C(C)(c1ccc([N+](=O)[O-])cc1)c1cc(C)c(C(=O)c2ccc(Cl)cc2)n1C (stereo unspecified)
23,125 °C,Nc1ccccc1C(=O)COC(=O)c1ccccc1
24,118 to 120 °C,CC[C@H](C)[C@@H](CO)NS(=O)(=O)c1ccc(I)cc1
25,148 °C,COc1ccc(-c2cc(F)c(F)cc2-c2ccc(S(C)(=O)=O)cc2)cc1Cl

row,melting point,Compound
1,304 °C,CCCn1c(=O)[nH]c2ccc(C(=O)c3ncc4ccccn34)cc2c1=O
2,172 to 174 °C,Cc1sc2c(Br)c3ccccc3c(-c3cc(Br)c(O)c(Br)c3)c2c1C
3,141 to 144 °C,CN1C(=O)[C@]2(C)CC[C@](NCC(=O)N3CCC[C@H]3C#N)(C1=O)C2(C)C
4,103 to 104 °C,CNC(=C[N+](=O)[O-])NCCSCc1nccs1
5,207 °C,Cc1c(Sc2ccccc2C(F)(F)F)c2cc(NS(C)(=O)=O)ccc2n1CC(=O)O
6,264 to 265 °C,Cn1cc(O)c(=O)c2cc(F)c(F)cc21
7,150 to 152 °C,CCc1cc(-c2ccc(Cl)cc2)nc2c(I)cnn12
8,95 °C,O=[N+]([O-])c1ccccc1OCc1csc(-c2ccccc2)n1
9,150 °C,COc1cccc(-c2ccc(C(=O)N(Cc3cccc(O)c3)C3CC3)s2)c1F
10,199 to 201 °C,OC1C(CF)OC(n2cnc3c(NN4CCCCC4)nc(Cl)nc32)C1O (stereo unspecified)
11,284 to 285 °C,ON1C=CN(c2ccccc2)N1
12,193 to 196 °C,Cc1cccc(-c2cn(C)cc(-c3cccc(C(F)(F)F)c3)c2=S)c1
13,112 to 114 °C,CC1=C(O)CCC(C)(C)C1=O
14,120 °C,CCCCCCCCOc1cccc2c1OCO2
15,79 to 82 °C,CC(C)(C)c1cc(SCO)cc(C(C)(C)C)c1O
16,189 to 190 °C,O=C(Cc1ccccc1C(=O)O)Nc1cccc(/C=C/c2nc(C3CCCCCC3)cs2)c1
17,134 to 136 °C,COCc1nc(N)nc(SC)n1
18,196 to 197 °C,CCCCc1nc2c(N)nc(C)c(C)c2n1CCCCNC(=O)Nc1ccccc1
19,132 to 138 °C,NC(=O)c1cnc2ccccc2c1
20,193 to 195 °C,Cn1ncc(-c2nn(-c3cccc(C(F)(F)F)c3)ccc2=O)c1-c1ccccc1
21,86 to 87 °C,CC(=O)C=Cc1c(C)c(C)c2c(c1C)CC(C)(C)O2
22,150 to 153 °C,CCC1CCCCN1C(=O)C=Cc1c(-c2ccncc2)nn2ccccc12 (stereo unspecified)
23,282 to 286 °C,CCCCCCNC1=NS(=O)(=O)c2cc(Cl)c(Cl)cc2N1
24,142 to 144 °C,Cc1ccc2c(-c3ccccc3)c([N+](=O)[O-])oc2c1
25,139 to 140 °C,CC(C)(C)c1ccc(CC[C@@H](N)[C@H](O)c2ccc(F)cc2)cc1 (racemic)

row,melting point,Compound
1,119 to 121 °C,CC(C)(O)C#Cc1c(F)c(F)c(-c2c(F)c(F)c(C#CC(C)(C)O)c(F)c2F)c(F)c1F
2,203 to 206 °C,COC(=O)c1cccc(C2C(C#N)=C(N)Oc3c2ccc2ncccc32)c1 (stereo unspecified)
3,290 to 293 °C,Cn1cc(C=CC(=O)Nc2ccc(O)cc2)c([N+](=O)[O-])n1
4,96.7 °C,CC1Cc2c(cc(C(C)(C)C)c(O)c2C(C)(C)C)S1 (stereo unspecified)
5,162 to 163 °C,O=C(N[C@@H](Cc1c[nH]c2ccccc12)C(=O)O)c1ccc(Br)cc1
6,> 275 °C,CC(C)c1ccc(CNc2ccc(S(=O)(=O)O)cc2)cc1
7,77 to 78 °C,COc1cc2c(cc1Br)C(C)(C)CCC2(C)C
8,162 to 164 °C,O=C1OCCC1=Cc1ccccc1O
9,206 to 207 °C,O=c1ccn(C2OC(CO)C(O)C2Cl)c(=O)[nH]1 (stereo unspecified)
10,48 to 49 °C,Cc1cc(C)c2c(c1C)OCC2c1ccc(C(C)C)cc1 (stereo unspecified)
11,127 to 129 °C,CCc1ccc2[nH]c(SCC(F)(F)F)nc2c1
12,190 to 200 °C,CCOP(=O)(OCC)c1cc2cc(S(=O)(=O)Cl)c(Cl)cc2[nH]c1=O
13,207 to 208 °C,COc1cc(C(=O)NS(=O)(=O)c2ccccc2C)ccc1CN1CCOc2ccc(NC(=O)CC3CCCC3)cc21
14,183 °C,Cc1nc2n(c(=O)c1CCN1CCC(c3noc4ccccc34)CC1)CCCC2
15,195 to 197 °C,CC(C)=NOCc1nc2c(N)nc3cccnc3c2n1CCCNC(=O)C(C)C
16,82 to 83 °C,C[C@@H](CCCCC(=O)O)NC(=O)OCc1ccccc1
17,99 to 101 °C,COc1ccc(C(=O)O)c(OCc2ccccc2)c1
18,213 to 215 °C,Cn1c(COc2ccc(CC3SC(=O)NC3=O)cc2)nc2ccc(Oc3ccc(NC(=O)c4cccnc4)cc3)cc21 (stereo unspecified)
19,89 to 90.5 °C,CCOC(=O)c1cc2c(OCc3ccccc3)cccc2n1C
20,201 to 202 °C,CCCCCCOc1ccc(-n2c(-c3ccc(Br)cc3)ccc2-c2ccc(Br)cc2)cc1
21,200 to 203 °C,Nn1c(-c2ccccc2)nc2cc(C(F)(F)F)ccc21
22,190 °C,COc1ccc(CN(C)CCc2ccc(NC(=O)c3cccc4c(=O)c5cccc(SC)c5[nH]c34)cc2)cc1OC
23,134 °C,Cc1cc(NC(=O)C(C)(C)Sc2ccc(Cl)cc2)c(C)c(C)c1O
24,80 to 82 °C,CCCCCCCOc1ccc(COc2ccc3c(c2)CC(CC(=O)O)C3OC)cc1 (stereo unspecified)
25,193 to 196 °C,CC(C)(C)OC(=O)N1CCC(C(c2cc(F)ccc2F)S(=O)(=O)c2ccc(Cl)cc2)CC1 (stereo unspecified)

row,melting point,Compound
1,93 to 94 °C,CC(O)(c1ccccc1)c1cc(Cl)ccc1N (stereo unspecified)
2,76 to 77 °C,OCCCc1ccccc1OCc1coc(/C=C/c2ccccc2)n1
3,230 to 234 °C,Cc1cccc(N)c1CNc1cccn2c(C=O)c(C)nc12
4,152 to 154 °C,CC(C)Cn1c(CNC(=O)OC(C)(C)C)c(-c2ccc(Cl)cc2)c2cc(/C=C/C(N)=O)ccc2c1=O
5,79 to 80 °C,CC(C)(Cc1cccc2ccccc12)NC=O
6,162 to 164 °C,COC(=O)C(=O)Nc1ccc(Cl)cc1
7,112 to 117 °C,CCOC(=O)C(C#N)=Cc1ccc(OC)c2c1CC(C)(C)O2
8,168 to 170 °C,CCc1cc(OCc2ccc(-c3ccccc3-c3nnn(C(c4ccccc4)(c4ccccc4)c4ccccc4)n3)cc2)c2c(n1)COCC2
9,84 °C,O=[N+]([O-])c1ccc(Cl)cc1NC1CCN(Cc2ccccc2)CC1
10,90 to 91 °C,Brc1cccc2c1ccc1ccccc12
11,62 °C,C=CCOc1cc(Br)ccc1C(=O)OC
12,142 to 144 °C,CS(=O)(=O)c1ccc(C2=C(c3ccc(Cl)cc3)C(=O)N(C3CCCCC3)C2)cc1
13,179 °C,Cc1oncc1C(=O)Nc1ccc(NC(=O)CBr)cc1
14,143 to 145 °C,CCOc1cccc(-c2nc(-c3ccccc3COC(=O)OCc3ccccc3-c3n[nH]c(-c4cccc(OCC)c4)n3)n[nH]2)c1
15,170 to 171 °C,CC(F)(F)c1cccc(C[C@@H](NC(=O)c2cccc3c2C=CCCC3)[C@@H](O)c2ccc(F)cc2)c1 (racemic)
16,140 °C,CCCCC1=Nc2ccccc2C(=O)C1
17,193 to 194 °C,Cc1c(Cl)ccc(N(C)C(=O)CN2C(=O)c3ccccc3C2=O)c1Cl
18,260 to 263 °C,COc1cc2ccccc2cc1C(=O)NNC(=O)c1cc2ccccc2cc1OC
19,48 to 51 °C,CSC1CC(=O)N1CC(=O)CCCCCCCc1ccccc1 (stereo unspecified)
20,174 to 175 °C,N#Cc1c(F)cc2c(c1Cl)N1CCC[C@@H](NC(=O)C(F)(F)F)[C@@H]1c1ccc(F)cc1O2
21,190 to 193 °C,CON=c1cc(C)c2ccccc2[nH]c1=O
22,244 to 248 °C,COc1cc2ncc3c(N)nc(C)cc3c2cc1OC
23,136 to 138 °C,CCCCCCOc1ccc(C(=O)c2cccc(C(=O)O)c2)c(C)c1
24,112 to 113 °C,Cc1cc(C(C)(C)c2ccc(O)cc2)ccc1O

row,Compound,melting point
1,OC(c1ccccc1)C(CN1CC=C(c2ccc(Cl)cc2)CC1)c1ccccc1 (stereo unspecified),135 to 137 °C
2,CCc1nc(N)nc(N)c1N1CCNCC1,204 to 207 °C
